From patent US20250108070A1, “METHOD FOR REPROGRAMMING CD8+ T CELLS TO ENHANCE THEIR THERAPEUTIC POTENTIAL AND APPLICATIONS THEREOF” (INSTITUT PASTEUR, priority 2022, published 2025)

Key:
[1] = tested on: mTORC1 and mTORC2 pathways; assay: Screening of GSK3 inhibitors: phospho-S6 / phospho-AKT staining (activation of mTORC1 and mTORC2 pathways); type: cell-based, human; conditions: FIG. 12A, in words
Protocol: (§1) FIG. 12. Screening molecules for reprogramming human CD8^+ T cells Total CD8^+ T cells were purified and treated for 12 hs with titrated doses of GSK3 inhibitors or DMSO vehicle control. After drug washout, cells were stimulated for 48 hs with plate-bound anti-CD3/anti-CD28 antibodies (at 1 mg/mL), followed by flow cytometry analyses. A. Upon stimulation, intracellular cytokine and phospho-protein staining was performed, the latter for the detection of phospho-S6 and phospho-AKT proteins (indicative of activation of mTORC1 and mTORC2 pathways, respectively). The fold change in the frequency of IFN-γ^+TNF-α^+ and pS6^+pAKT^+ cells induced by the treatment with each GSK3 inhibitor, relative to DMSO control, was analyzed. […] B. Fold change in the expression of the indicated markers and memory phenotypes induced by anti-CD3/anti-CD28 antibody stimulation relative to unstimulated cells (at least 3 donors per condition). TCM: T central memory; TEM: T effector memory; TTM: T transitional memory; TTE: T terminal effector; TSCM: T stem cell memory.
(§2) For reprogramming of CD8^+ T cells followed by polyclonal stimulation, cells were isolated by negative magnetic bead sorting (Stemcell Technologies). For reprogramming of CD8^+ T cells followed by antigen-specific stimulation, PBMC and magnetically separated CD8^+ T cells and non-CD8^+ T cells were used (REAlease® CD8 MicroBead Kit; Miltenyi Biotech). Then, CD8^+ T cells were treated with a GSK3 inhibitor (6-Bromoindirubin-3′-oxime; BIO; Sigma-Aldrich), at 3 μM, or an equivalent concentration of dimethyl sulfoxide (DMSO) vehicle control, in complete medium, for 12 hs at 37° C., 5% CO2. Non-CD8 cells were left resting during this time in complete medium. CD8^+ T cells were washed with complete medium and stimulated with the peptide pool in presence of non-CD8 T cells.
(§3) In some experiments, cells were culture in RPMI medium without glucose (MP Biomedicals). CD8^+ T cell proliferation was evaluated by CFSE dilution (at 1 μM, Thermo Fisher Scientific). In additional experiments, reprogrammed CD8^+ T cells were stimulated with IL-7 or IL-15 (both at 10 ng/mL; R&D) and cultured for 6 days. In all the cases, cells were cultured at a density of 2×10^6 cells/mL.
(§4) After cultures, cells were stained with the LIVE/DEAD Fixable Aqua Dead Cell Stain kit (Thermo Fisher Scientific), with anti-CD3 Alexa Fluor 700 or APC efluor 780 and anti-CD8 PE Texas Red antibodies, accordingly. […] In some experiments, cells were stained with APC-conjugated dextramers (Immudex), incubated for 15 minutes at room temperature. Additional surface staining panels included anti-HLA-DR Superbright 780, anti-CD38 Superbright 600, anti-PD-1 BV421, anti-LAG-3 APC efluor 780, anti-TIM3 PE Cy7, and anti-TIGIT BV786 antibodies, or anti-CD122 PE and anti-CD215 FITC antibodies. The BD Transcription Factor Buffer Set kit (BD Biosciences) was used for cell fixation and permeabilization. […] Cell acquisition was performed using LSR II or ARIA III flow cytometers (both from BD Biosciences), and data were analyzed with FlowJo v.10 software (BD Biosciences).
(§5) The inventors explored GSK3 inhibitors to expand the array of molecules that could be used for CD8^+ T cell reprogramming. They implemented a screening approach that combined the evaluation of cytokine polyfunctionality of CD8^+ T cells (IFN-γ+TNFα+) vs the activation of mTORC1 and mTORC2 pathways (pS6+pAKT+) upon treatment with the GSK3 inhibitors and subsequent polyclonal stimulation.

human CD8+ T cells [2] = assay: Screening of GSK3 inhibitors: markers and memory phenotypes by flow cytometry; type: cell-based; conditions: FIG. 12B, in words
Protocol: as §1, §2, §3, §4

human CD8+ T cells [3] = assay: Screening of GSK3 inhibitors: cytokine polyfunctionality (IFN-γ+TNF-α+) of CD8+ T cells after anti-CD3/anti-CD28 stimulation; type: cell-based; conditions: FIG. 12A, in words
Protocol: as §1, §2, §3, §4, §5

GSK3 = conditions: cited from earlier work

O=C1Nc2cc(Br)ccc2/C1=C1/Nc2ccccc2/C1=N\O [BIO, 6-bromoindirubin-3′-oxime]
frequency of pS6+pAKT+ cells / activation of mTORC pathway [1]: lower frequency | CD127+ T-bet− phenotype (human CD8+ T cells [2]): preserved | acquisition of T-bet, HLA-DR and CD38, PD-1 and LAG-3 (human CD8+ T cells [2]): restrained | phenotype / profile promoted in CD8+ T cells (human CD8+ T cells [2]): promoted a less-differentiated phenotype | IFN-γ+TNF-α+ cells (polyfunctionality) relative to vehicle control (human CD8+ T cells [3]): promoted | beta-catenin phosphorylation (GSK3; Meijer L et al., 2003): reduces | phosphorylation on Tyr276/216 GSK3a/p activation site (GSK3; Meijer L et al., 2003): inhibits | Wnt/β-catenin/TCF-1 pathway (GSK3; reference 42): induce the activation
